Earlier results, collected in paper PMC8198792, “Prediction of Anticancer Peptides with High Efficacy and Low Toxicity by Hybrid Model Based on 3D Structure of Peptides” (International Journal of Molecular Sciences, 2021).
Read-outs that look alike come from different tables or passages of the source.

Key:
erythrocytes = conditions: cited from earlier work
Description: Supplement ijms-22-05630-s001.zip/Hemloytic Peptides(seguence).xlsx, sheet "HD1" | column: Activity || Supplement ijms-22-05630-s001.zip/Hemloytic Peptides(seguence).xlsx, sheet "HD2" | column: Activity || Supplement ijms-22-05630-s001.zip/Hemloytic Peptides(seguence).xlsx, sheet "HD3" | column: Activity

cancer cell lines = system: cancer cell lines; parameters: method as in 6 sources, ref CancerPPD [45] and SATPdb ||| ref CancerPPD/SATPdb ||| ref CancerPPD, SATPdb, Swissprot (PDB) ||| ref CancerPPD/SATPdb/Swissprot(PDB) ||| ref CancerPPD / SATPdb ||| ...; conditions: cited from earlier work
Description: Supplement ijms-22-05630-s001.zip/ACPs(seguence).xlsx, sheet "D1" | column: Activity || Supplement ijms-22-05630-s001.zip/ACPs(seguence).xlsx, sheet "D2" | column: Activity || Supplement ijms-22-05630-s001.zip/ACPs(seguence).xlsx, sheet "D3" | column: Activity || (+ 2 further places)

[1] = Hemolytic peptides dataset HD2, label 1 = hemolytic, 0 = non-hemolytic, ref Hemolytik/SATPdb
[2] = hemolytic peptides dataset HD3, 1 = hemolytic (positive set), 0 = non-hemolytic (negative set), labels taken from databases, ref Hemolytik/SATPdb
[3] = natural hemolytic peptide dataset HD1, label collected from databases, ref Hemolytik [49], SATPdb [34]
[4] = ACPs dataset D1, 1 = ACP (positive), 0 = non-ACP (negative), label taken from databases, ref CancerPPD [45] and SATPdb
[5] = ACPs dataset D4 (sheet "D4"), label 1 = ACP (CancerPPD ID), 0 = non-ACP (non-anticancer AMP, SATPdb ID), ref CancerPPD [45] and SATPdb
[6] = ACPs dataset D4 (sheet "D4"), label 1 = ACP, experimentally validated ACPs, ref CancerPPD [45] and SATPdb
[7] = ACPs dataset D5 (sheet "D5"), label 1 = ACP (positive set), sequences with CancerPPD/SATPdb ID, ref CancerPPD, SATPdb
[8] = ACPs dataset sheet D2, 1 = ACP (CancerPPD/SATPdb ID), 0 = non-ACP (Swissprot/PDB ID), ref CancerPPD, SATPdb, Swissprot (PDB)
[9] = ACPs dataset D3 (supplement sheet "D3"), 1 = ACP, 0 = non-ACP, ref CancerPPD [45] and SATPdb
[10] = ACPs dataset D4 (sheet "D4"), label 1 = ACP, 0 = non-ACP, ref CancerPPD / SATPdb
[11] = ACPs dataset D5, sheet "D5", label 1 = ACP, 0 = non-ACP, ref CancerPPD [45] and SATPdb
[12] = ACPs dataset D2 (supplement ACPs(seguence).xlsx, sheet D2), dataset label 1/0 (ACP / non-ACP), entries identified by Swissprot(PDB ID), ref CancerPPD/SATPdb/Swissprot(PDB)
[13] = ACPs dataset D5 (sheet "D5"), label 1 = ACP (positive set), 0 = non-ACP (negative set), ref CancerPPD [45] and SATPdb

Substance | Activity (erythrocytes) | Activity (dataset HD1, hemolytic 1 / non-hemolytic 0) (erythrocytes) | other results
KKKKKKKKKKGIGKFLHSAKKFGKAFVGEIMNS [satpdb13667] | 0 | 0 | –
WKKIPKFLHLAKKF [satpdb14752] | 0 | – | –
GIHDILKYGKPS [satpdb19051] | 0 | 0 | –
KVAKQEKKKKKTGRAKRR [satpdb15637] | 1 | 1 | –
LLLKLLKLLLKLLLKLLK [compound 3688] | 1 | – | –
IKIPPIVKDTLKKVAKGVLSTIAGALST [satpdb27001] | 0 | 0 | –
KWKLFKKIPKFLHL [satpdb16155] | 0 | – | –
KKAAHVGKHVGKAALTHYL [satpdb21325] | 0 | – | –
KKLKKLKKKWKKLKKKLK [satpdb24596] | 0 | 0 | –
ILGKLLSTAWGLLSNL [satpdb11718] | 1 | – | –
LRRLWLRANRL [satpdb19164] | 0 | 0 | –
KKWLKKWLK [satpdb18253] | 0 | – | –
GIGKFLHSAKKFGKAFVGEIMNS [satpdb11151] | – | – | Activity (erythrocytes; [1]): 1; Activity (erythrocytes; [2]): 1
LKDVEEAQQKIINIIRRL [satpdb22186] | 0 | – | –
KWKKLPKKLLKLL [satpdb21914] | 0 | – | –
KWKSFLKTLKSPVKTVFYTALKPISS [satpdb14675] | – | – | Activity (erythrocytes; [2]): 1; Activity (dataset HD1, hemolytic 1 / non-hemolytic 0) (erythrocytes; [3]): 1
GWKKWLRKGAKHLGQAAIK [satpdb12620] | 1 | – | –
KWKLFKKIPKFLHSAKKF [satpdb25981] | 0 | – | –
GRDYRTSLTIVQKLKKMVD [satpdb22468] | 0 | 0 | –
VGKTWIKVIRGIGKSKIKWQ [satpdb28870] | 0 | 0 | –
RIIDLLWRVRRPQKPKFVTVWVR [satpdb14815] | 0 | 0 | –
GGLRSLGRKILRAWKKYGPIIVPIIRIG [satpdb22390] | 0 | 0 | –
ENMFNIKSSVESDSFWG [satpdb15776] | 0 | 0 | –
KKLKKLLKKWKKLLKKLK [satpdb24868] | 0 | 0 | –
DSHEKRHHGYKRKFHEKHHSHRGY [satpdb14665] | 0 | 0 | –

Substance | Activity (erythrocytes) | Activity (dataset HD1, hemolytic 1 / non-hemolytic 0) (erythrocytes) | other results
FIFPKKNIINSLFGR [satpdb24412] | – | – | Activity (erythrocytes; [2]): 0; Activity (dataset HD1, hemolytic 1 / non-hemolytic 0) (erythrocytes; [3]): 0
KKKKKKAAWAAWAAWAA [satpdb17717] | 0 | – | –
IPHAVKAISDLI [satpdb15419] | 0 | – | –
KIAEKFSGTRRG [satpdb24068] | 0 | 0 | –
GFWKKVGSAAWGGVKAAAKGAAVGGLNALAKHIQ [satpdb28387] | 0 | 0 | –
GWGSFFKKAAHVGKHVGKAALT [satpdb28107] | 0 | – | –
FLSLIPHAINAVSAIAKHF [satpdb17651] | 0 | – | –
GLFDIIKKIAESFKFSEAIKKIIDFLG [satpdb13437] | 1 | 1 | –
RWRSFFKKAAHRGKHVGKRARTHYL [satpdb15888] | 0 | – | –
GLLSGTSVRGSI [satpdb16160] | 1 | 1 | –
KKKKKKALFALWLAFLA [compound 1155] | 1 | – | –
KWKSFLRTFKSPVRTVFHTALKPISS [satpdb15241] | 1 | 1 | –
PKLKTFLSKWIG [satpdb28564] | 0 | 0 | –
KRLFRRLLFSMKKY [satpdb20261] | 0 | 0 | –
GSKKPVPIIYCNRRAATGKCQRM [satpdb20782] | 0 | 0 | –
KKKKKKALFAAWAAFLA [compound 1151] | 1 | – | –
KKKKKKAAFALWLAFLA [compound 1154] | 1 | – | –
FSPQMLQDIIEAATAIL [satpdb19301] | – | – | Activity (erythrocytes; [2]): 0; Activity (dataset HD1, hemolytic 1 / non-hemolytic 0) (erythrocytes; [3]): 0
VRRFPFFFPFLRR [satpdb22709] | 0 | 0 | –
KWKSFLKTFKSAKKKVLHTALKAISS [satpdb11775] | 1 | – | –
KWKSFLKTFKSLKKTVLHTLLKAISS [satpdb11586] | 1 | – | –
GCRFCCNCCPNMSGCGVCCRF [satpdb21740] | – | – | Activity (erythrocytes; [2]): 0; Activity (dataset HD1, hemolytic 1 / non-hemolytic 0) (erythrocytes; [3]): 0
CGESCVFIPCVTALLGCSCKSKVCYKNSIP [satpdb12547] | – | – | Activity (erythrocytes; [2]): 1; Activity (dataset HD1, hemolytic 1 / non-hemolytic 0) (erythrocytes; [3]): 1
SWSSFFKKAAHSGKHVGKSASTHYL [satpdb15741] | 0 | – | –
LKLFKKILKFL [satpdb12214] | 1 | – | –

Substance | Activity (erythrocytes) | Activity (dataset HD1, hemolytic 1 / non-hemolytic 0) (erythrocytes) | other results
KWLKKWL [satpdb27612] | 0 | – | –
CKTRTSTNTDHLWIAKSKARLSET [satpdb28106] | 0 | 0 | –
KRLFKKLLFSLRKY [satpdb21867] | 0 | 0 | –
KNLRRITRKIIHIIKKYG [satpdb15247] | 1 | 1 | –
fPOVO [satpdb21927] | – | – | Activity (erythrocytes; [1]): 0; Activity (erythrocytes; [2]): 0
KKLFKKILkYL [satpdb24648] | 0 | – | –
KRFKQDGGWSHWSPWSS [satpdb23837] | 0 | 0 | –
KKVVFKVKFK [satpdb13312] | 0 | – | –
GIIKKIIKKI [satpdb26556] | 0 | – | –
KKFLHSAKKWLKAFVKLKKNW [satpdb15438] | 1 | 1 | –
KWKLFKKIPKFLHLAKKF [compound 2405] | – | – | Activity (erythrocytes; [1]): 0; Activity (erythrocytes; [2]): 0
RRRAAFAAWAAFAARRR [satpdb23563] | 0 | – | –
TNYGNGVGVPDAIMAGIIKLIFIFNIRQGYNFGKKAT [satpdb11292] | – | – | Activity (cancer cell lines; [4]): 0; Activity (cancer cell lines; [5]): 0
FLPIIAGAAAKVVEKIFCAISKKC [compound 4357] | – | – | Activity (cancer cell lines; [4]): 1; Activity (cancer cell lines; [6]): 1; Activity (cancer cell lines; [7]): 1; Activity (cancer cell lines; [8]): 1
VAKCTEESGGKYFVFCCYKPTRICYMNEQKCESTCIGK [satpdb10361] | – | – | Activity (cancer cell lines; [4]): 0; Activity (cancer cell lines; [5]): 0
FLPIVGRLISGLL [satpdb10939] | – | – | Activity (cancer cell lines; [9]): 0; Activity (cancer cell lines; [10]): 0; Activity (cancer cell lines; [11]): 0
APRLPQCQGDDQEKCLCNKDECPPGQCRFPRGDADPYCE [1DEC NMR - A 1-39] | – | – | Activity (cancer cell lines; [12]): 0; Activity (cancer cell lines; [13]): 0
DKLIGSCVWGAVNYTSNCNAECKRRGYKGGHCGSFANVNCWCET [1OZZ NMR - A 1-44] | – | – | Activity (cancer cell lines; [12]): 0; Activity (cancer cell lines; [13]): 0
FLGMIPKLIKKLIKAFK [compound 3135] | – | – | Activity (cancer cell lines; [9]): 1; Activity (cancer cell lines; [6]): 1; Activity (cancer cell lines; [7]): 1
GLFDIIKKIAESF [compound 1252] | – | – | Activity (cancer cell lines; [9]): 1; Activity (cancer cell lines; [5]): 1; Activity (cancer cell lines; [13]): 1
EDGLHPRLCSC [satpdb11408] | – | – | Activity (cancer cell lines; ACPs dataset D1, label 1 = ACP, 0 = non-ACP (non-anticancer AMPs from SATPdb), ref CancerPPD/SATPdb): 0; Activity (cancer cell lines; [5]): 0
LNWGAVLKHVVK [satpdb11336] | – | – | Activity (cancer cell lines; [9]): 0; Activity (cancer cell lines; [10]): 0; Activity (cancer cell lines; [11]): 0
GKWKSLLKHILK [compound 3653] | – | – | Activity (cancer cell lines; [9]): 1; Activity (cancer cell lines; [5]): 1; Activity (cancer cell lines; [13]): 1
FLKDHRISTFKNWPF [satpdb15356] | – | – | Activity (cancer cell lines; [4]): 1; Activity (cancer cell lines; [6]): 1; Activity (cancer cell lines; [7]): 1; Activity (cancer cell lines; [8]): 1
RRWCFRVCYR GFCYRKCR [1RKK NMR - A 1-18] | – | – | Activity (cancer cell lines; [13]): 0; Activity (cancer cell lines; [8]): 0
